Laboratory results: US20250049078A1, “ECO-FRIENDLY ADDITIVES FOR HAY AND SILAGE INOCULANTS MINIMIZING GREENHOUSE GAS EMISSIONS” (Kansas State University Research Foundation, priority 2021, published 2025)

Assays:
[1] = system: N2O production from corn, alfalfa, and sorghum silages (denitrifiers); experiment: N2O production from laboratory mini silos (simulated silage) with different treatments, fourth part of the study; details: for reduction of N2O production: inoculant + additive 0.1% (w/w), corn, alfalfa, sorghum silages, FIG. 4A, three replicates
Method: GHG production from simulated silage. Laboratory experiments were performed to estimate the GHG emission potentials from silage conservation (i.e. anaerobic conservation). In a first part of the study, N2O production from forage silos was studied. The forages used were corn, alfalfa, and sorghum. The mini silos consisted of 1 L glass jars connected to a 1-L Tedlar bag. The forage was chopped into 2-3 cm pieces with a laboratory chopper and ensiled in laboratory mini silos at a bulk density of 700 kg/m^3 (700 grams per silo). The experiments were performed in an incubator at 30° C. in the dark, and the produced gas volume and composition were measured periodically for 30 days.
(§1) The treatments compared in this research consisted of (1) no treatment, (2) commercial silage inoculant (Pioneer® inoculant), (3) inoculant+chlorate (0.1%, w/w), and (4) inoculant+acetate (0.1%, w/w). Three replicates for each treatment were performed.
In the fourth part of the study, three replicates for each treatment were added to forage silos prepared as described in paragraph [0052].

[2] = system: N2O production from simulated silage (denitrifiers); experiment: N2O production from alfalfa mini silos (simulated silage) with different treatments, fifth part of the study; details: for effect on N2O production: amendment 0.1% (w/w), P<0.001
Method: In a second part of the study, N2O and CH4 production from forage silos were studied. The forage used was second cut alfalfa (HVX MegaTron) harvested at the early flower stage. The mini silos consisted of 1 L glass jars connected to a 1-L Tedlar bag. The forage was chopped into 2-3 cm pieces with a laboratory chopper and ensiled in laboratory mini silos at a bulk density of 700 kg/m^3 (700 grams per silo). The experiments were performed in an incubator at 30° C. in the dark, and the produced gas volume and composition were measured periodically for 35 days.
as §1
In the fifth part of the study, three replicates for each treatment were added to forage silos prepared as described in paragraph [0054].

Row | Compound | reduction of N2O production [1] | reduction of total amount of N2O ([2]; acetate as a sodium salt, 1 g per kg-forage, preliminary study) [%] | effect on N2O production ([2]; preliminary study) | reduction of N2O production ([2]; inoculant + 0.1% (w/w) acetate, alfalfa silage, P<0.01, FIG. 4C) [%] | reduction of N2O ([1]; lower concentrations up to 0.01% (w/w), alfalfa silage, FIG. 4B) | reduction of N2O production (fold) ([2]; inoculant + 0.1% (w/w) chlorate, alfalfa silage, FIG. 4C)
1 | CC(=O)O [acetate] | up to 25% | 25 | significantly repressed | 25 | – | –
2 | [O-][Cl+2]([O-])O [chlorate] | up to 99% | – | significantly repressed | – | higher than 90% | more than ten times
